Experimental data: patent US5232922A, “Imidazole compounds, processes for their preparation, pharmaceuticals based on these compounds and some intermediates” (priority 1990, dated 1993)

Assays:
[1] = test system: laser-induced thrombosis in mesenterial arterioles; assay: Inhibition of laser-induced thrombosis in mesenterial arterioles of the rat; assay type: in vivo, rat (female Sprague-Dawley); conditions: Rattus norvegicus, po, read-out: Percentage change vs control (inhibition of laser-induced thrombosis); for inhibition in vivo at 10 mg/kg: 10 mg/kg p.o.; for inhibition in vivo at 20 mg/kg: 20 mg/kg p.o.
[2] = Acute toxicity (LD50 range); conditions: mouse, in vivo, single administration, NMRI mice, 7 days
Description: The determination of the LD50 ranges was carried out in standard fashion by means of the mortality occurring in the course of 7 days in NMRI mice after single intravenous (i.v.) or intraperitoneal (i.p.) administration (NMRI=NIH Medical Research Institute).

[3] = test system: skeletal muscle of the rat (chronic ischemic); assay: Effect on the contractility of the skeletal muscle after chronic ischemia (tiring index); assay type: in vivo, rat (male Wistar); conditions: 6 mg/kg p.o. over 7 days, n = 4-6; for TI of ischemic treated muscle: tiring index = maximum contractility / residual force after 5 min stimulation; for change in vivo at 6 mg/kg: Rattus norvegicus, po, 168 h, smaller value = more effective, read-out: Percentage change (TI of ischemic treated muscle vs TI of normal non-treated muscle)
Source text: 1) Effect on the Contractility of the Skeletal Muscle After Chronic Ischemia
In recent years, a marked change has taken place in ideas about the pathophysiology of chronic peripheral arterial occlusive disease as scientific interest has to an increasing extent shifted from the macrocirculation to the microcirculation. Disturbances in the microcirculation therefore manifest themselves in an undersupply of substrates with tissue ischemia resulting therefrom which, in turn, leads to an impairment in the function of the extremity concerned. The logical consequence of this is that the target organ skeletal muscle comes more and more into the forefront. […] The clinical activity is in fact also consistently determined in humans with the aid of the painless walking distance on the moving walkway.
Male Wistar rats having a body weight of 380 to 410 g were used as experimental animals. Under hexobarbital anesthesia (®Evipan--sodium, 200 mg/kg BW (=body weight) i.p.), a unilateral ligature of the right femoral artery was applied to the animals in the groin. After sprinkling penicillin sulfonamide powder for antibiotic wound care, the small operation wound was closed and the animals were continuously observed until they were completely awake. One week later, the administration of substance began by oral administration using a stomach tube (6 mg/kg BW, carboxymethylcellulose-sodium suspension) and was continued for 7 days (single administration per day, about 7h30 to 8h30). The contractility was measured 24 h after the last administration of substance in order to exclude acute effects, to be precise by the following experimental protocol:
Superfusion with physiological saline solution (37° C.) was used to avoid drying out and cooling. The mean arterial blood pressure was recorded continuously via Statham (=blood pressure measuring device) by means of a cannulated caroted artery to control the physiological status of the animals during the experiment. All animals breathed spontaneously by means of an inserted tracheal tube.
After these preparations, the muscle was made to contract (Stimulator I, Hugo Sachs, Federal Republic of Germany) by direct electrical stimulation (2.5 mA, 2 Hz). The absolute contractility in grams at various times of stimulation was used as the measured parameter. […] If the maximum contractility at the start of stimulation is now divided by the residual force remaining after 5 minutes' tiring stimulation, a "tiring index TI" for the muscle concerned can be calculated; the ability to tire here is larger the larger TI is numerically.
4 to 6 individual experiments were carried out for each test preparation.

[4] = test system: laser-induced thrombosis; assay: Inhibition of laser-induced thrombosis in hyperlipidemic, spontaneously hypertensive, stroke-prone rats; assay type: in vivo, rat (hyperlipidemic hypertensive)
[5] = test system: photochemically-induced thrombosis in mesenterial arterioles; assay: Inhibition of photochemically-induced thrombosis in mesenterial arterioles; assay type: in vivo, rat
Description: In this model, rats were anesthetized as described above under 2). The investigations were carried out on mesenterial arterioles having a diameter of 11 to 50 lm. A thrombosis was induced in a modification in accordance with a method known from the literature (Herrmann, K. H. Microvasc. Res. 26, 238-249, 1983) and is based on the photochemical release of singlet oxygen, which leads locally to an endothelial lesion. The animals to be investigated received an intravenous injection of 0.3 ml of a 10% strength solution of fluorescein in isothiocyanate--Dextran 70 (FITC--Dextran 70 s, Sigma, Munich). The arterole was looked for under the microscope and centered in the observation field. The FITC--Dextran in the blood vessel was then excited using a special lamp and filter device (excitation 490 nm, emission 510 nm). For evaluation of thrombus formation, the time was taken which extended from the point of excitation to the formation of a first thrombus on the wall. 5 vessels in each animal were examined in this manner.

[6] = test system: laser-induced thrombosis; assay: Inhibition of laser-induced thrombosis in atherosclerotic rabbits; assay type: in vivo, rabbit (atherosclerotic); conditions: 30 mg/kg daily for 14 days
[7] = test system: capillary bed of the skeletal muscle of the rat; assay: Laser-Doppler flow measurement of erythrocyte flux in acutely ischemic skeletal muscle; assay type: in vivo, rat (male Wistar); conditions: during occlusion
Description: Using laser-Doppler flow measurements (LDF), the erythrocyte flux (the number of cells flowing past under the laser beam x their velocity) can be measured in a noninvasive and continuous manner in the capillary bed of the skeletal muscle of the rat (perimed PF2 laser-Doppler flowmeter, Perimed, Sweden). […] The apparatus was set as follows: 12 kHz, gain 10, time constant 1.5 sec, 37° C. The right femoral artery of male Wistar rats having a body weight of 380-430 g was exposed and the skin and the connective tissue was dissected away over a small muscle area (anterior tibia). The probe was placed about 1 mm above this area. […] At this point, the test substances were infused intravenously in aqueous solution (0.03 and 0.6 mg/kg/min). The maximum percentage increase in the erythrocyte flux after administration of substance during the occlusion (see also Okyayuz-Baklouti, I., European J. of Pharmacology, 166: 75-86, 1989) was used as the measuring parameter for the substance activity. […] 3-7 animals were employed per preparation and dose.

[8] = test system: acutely ischemic muscle; assay: Contractility in the acutely ischemic muscle; assay type: in vivo
Description: The contractility in the acutely ischemic muscle was measured in a similar experimental procedure, as described under 1). The muscle, initially normally supplied with blood, was made to contract isometrically by direct electrical stimulation (1.2 Hz, 2.5 mA). The right femoral artery was then occluded for 5 min by means of a clamp. […] The vessel was then reopened and the starting contractility before the first occlusion was attained. During the second occlusion which then followed, the preparations to be tested were administered intravenously in aqueous solution via the jugular vein. 4-8 animals were employed per preparation and dose. The decrease in the contractility during occlusion with and without substance administration was compared and the percentage change was used to evaluate the substance activity. The substances according to the invention, for example the compound of Example 7, were also remarkable in this test for outstanding effects.

Structure (SMILES)	inhibition in vivo at 10 mg/kg [1] [%]	LD50 at 168 h ([2]; iv) [mg/kg]	TI of ischemic treated muscle [3]	change in vivo at 6 mg/kg [3] [%]	further results
Cl.Cn1cnc(S(=O)(=O)NCCCCN2CCOCC2)c1 [Example 10, N-(4-morpholinobutyl)-1-methyl-4-imidazolesulfonamide hydrochloride]	38	> 100	2.19	-3.6	–
Cl.Cn1ccnc1S(=O)(=O)NCCCN1CCOCC1 [Example 29, N-(3-Morpholinopropyl)-1-methyl-2-imidazolesulfonamide hydrochloride]	21	> 100	2.74	38.4	–
Cn1cnc(S(=O)(=O)NCCc2ccc(O)cc2)c1Cl [Example 46, N-(4-hydroxyphenethyl-)-5-chloro-1-methyl-4-imidazolesulfonamide]	29	–	2.05	-6.4	inhibition in vivo at 30 mg/kg ([1]; 30 mg/kg p.o.): 29%; LD50 at 168 h ([2]; ip): > 1200 mg/kg
Cn1cnc(S(=O)(=O)N2CCN(c3ccc(O)cc3)CC2)c1 [Example 25]	22	–	2.11	6.6	LD50 at 168 h ([2]; ip): > 300 mg/kg
CN1CCN(CCCNS(=O)(=O)c2cn(C)cn2)CC1 [Example 27, N-[3-(4-Methylpiperazino)propyl]-1-methyl-4-imidazolesulfonamide dihydrogenfumarate]	–	> 100	2.6	32.6	inhibition in vivo at 20 mg/kg [1]: 23%
Cn1cnc(S(=O)(=O)O)c1Cl [Example 1, 5-Chloro-1-methyl-4-imidazolesulfonic acid]	13	> 200	2.26	1.3	–
Cl.Cn1cnc(S(=O)(=O)NCCCCCN2CCOCC2)c1Cl [Example 34, N-(5-Morpholino-1-pentyl)-5-chloro-1-methyl-4-imidazolesulfonamide hydrochloride]	15	> 100	1.98	0	–
Cl.Cn1cnc(S(=O)(=O)NCc2ccc(CN3CCOCC3)cc2)c1 [Example 14, N-[4-(morpholinomethyl)benzyl]-1-methyl-4-imidazolesulfonamide hydrochloride]	–	> 100	2.57	13.4	inhibition in vivo at 20 mg/kg [1]: 13%
Cn1cnc(S(=O)(=O)NCCCN2CCOCC2)c1 [Example 7, N-(3-Morpholinopropyl)-1-methyl-4-imidazolesulfonamide]	36	> 100	2.79	0.3	inhibition of laser-induced thrombosis ([4]; 10 mg/kg daily for 7 days): 18%; inhibition of laser-induced thrombosis ([4]; 30 mg/kg daily for 7 days): 32%; inhibition of photochemically-induced thrombosis ([5]; 1 mg/kg p.o.): 69%; inhibition of photochemically-induced thrombosis ([5]; 3 mg/kg i.v.): 36%; inhibition of photochemically-induced thrombosis ([5]; 3 mg/kg p.o.): 75%; inhibition of photochemically-induced thrombosis ([5]; 10 mg/kg i.v.): 56%; inhibition of photochemically-induced thrombosis ([5]; 10 mg/kg p.o.): 130%; inhibition of photochemically-induced thrombosis (in words) ([5]; rat, in vivo): inhibited in a dose-dependent and statistically significant manner; inhibition of laser-induced thrombosis [6]: 36%; maximum percentage increase in the erythrocyte flux ([7]; 0.03 mg/kg/min i.v. infusion): +53.3%; maximum percentage increase in the erythrocyte flux ([7]; 0.6 mg/kg/min i.v. infusion): +80.6%; improvement of contractility in the acutely ischemic muscle ([8]; 0.03 mg/kg/min i.v.): +17.2%; improvement of contractility in the acutely ischemic muscle ([8]; 0.3 mg/kg/min i.v.): +25.2%
Cl.Cn1cncc1S(=O)(=O)NCCCN1CCOCC1 [Example 53, N-(3-Morpholino-1-propyl)-1-methyl-5-imidazolesulfonamide hydrochloride]	18	> 100	3.18	-3.3	–
Cl.Cn1ccnc1S(=O)(=O)NCCN1CCOCC1 [Example 30, N-(2-Morpholinoethyl)-1-methyl-2-imidazolesulfonamide hydrochloride]	45	> 100	2.82	-14.2	–
CC(=O)CCCCn1c(=O)c2c(ncn2C)n(C)c1=O [Pentoxyfylline, 1-(5-oxohexyl)-3,7-dimethylxanthine, reference compound]	–	–	3.20	43.5	inhibition of photochemically-induced thrombosis ([5]; 1 mg/kg p.o.): 29%; inhibition of photochemically-induced thrombosis ([5]; 3 mg/kg i.v.): 3%; inhibition of photochemically-induced thrombosis ([5]; 3 mg/kg p.o.): 18%; inhibition of photochemically-induced thrombosis ([5]; 10 mg/kg i.v.): 38%; inhibition of photochemically-induced thrombosis ([5]; 10 mg/kg p.o.): 68%; maximum percentage increase in the erythrocyte flux ([7]; 0.03 mg/kg/min i.v. infusion): 24.6%; maximum percentage increase in the erythrocyte flux ([7]; 0.6 mg/kg/min i.v. infusion): 33.1%; activity in acute ischemic muscle contractility test (in words) ([8]; i.v.): only showed marginal activity
